Reference: ChEMBL document CHEMBL1201862, “PubChem BioAssay data set” (2004)
Active and inactive are the calls of the source.

Experiments:
[1] = target: T1, Calpain-2 catalytic subunit (Sus scrofa, UniProt P43367); experiment: pig calpain II inhibitor potency, dose response, biochemical, fluorogenic peptide substrate (AID 1420); assay type: functional
T1 sequence (P43367 whole entry): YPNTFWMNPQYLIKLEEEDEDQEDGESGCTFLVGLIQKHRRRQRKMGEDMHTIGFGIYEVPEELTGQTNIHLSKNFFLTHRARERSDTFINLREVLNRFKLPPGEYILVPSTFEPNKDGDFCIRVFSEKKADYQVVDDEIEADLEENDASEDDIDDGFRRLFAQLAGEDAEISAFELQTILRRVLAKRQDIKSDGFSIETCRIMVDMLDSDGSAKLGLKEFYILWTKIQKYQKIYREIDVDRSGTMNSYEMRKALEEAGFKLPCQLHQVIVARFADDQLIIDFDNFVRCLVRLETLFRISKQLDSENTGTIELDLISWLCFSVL

[2] = target: Sphingosine 1-phosphate receptor 2 (Homo sapiens, UniProt O95136); experiment: Dose Response Cell Based Assay for Antagonists of the S1P2 Receptor. [Related pubchem assays: 856, 736 ]; assay type: functional
[3] = target: Diphosphomevalonate decarboxylase (Streptococcus pneumoniae serotype 2 (strain D39 / NCTC 7466), UniProt Q9FD53); experiment: S. pneumoniae DPM-DC inhibition retest, confirmation, biochemical, cuvette format, coupled NADH fluorescence (AID 1028); assay type: functional
Fibrinogen beta chain [4] = target: T2, Fibrinogen beta chain (Homo sapiens, UniProt P02675); experiment: Fluorescence polarization-based biochemical high throughput dose response assay to identify inhibitors that disrupt the binding of a cyclic peptide (Tn6) to the fibrin proteolytic product D-Dimer and fragment E complex [DD(E )].
Fibrinogen beta chain [5] = target: T2, Fibrinogen beta chain; experiment: Fluorescence polarization-based biochemical high throughput dose response assay to identify inhibitors that disrupt the binding of a cyclic peptide (Tn7) to the fibrin proteolytic product D-Dimer and fragment E complex [DD(E )].
[6] = target: T3, Oxysterols receptor LXR-beta (Homo sapiens, UniProt P55055); experiment: LXR agonists, Gal4 luciferase reporter, dose response, counter-screen for ssDAF-12 agonist project, cell-based, luminescence, HEK293, S. stercoralis campaign (AID 720737); assay type: functional; details: read-out: IC50 (the source's name)
T3 sequence (P55055 whole entry): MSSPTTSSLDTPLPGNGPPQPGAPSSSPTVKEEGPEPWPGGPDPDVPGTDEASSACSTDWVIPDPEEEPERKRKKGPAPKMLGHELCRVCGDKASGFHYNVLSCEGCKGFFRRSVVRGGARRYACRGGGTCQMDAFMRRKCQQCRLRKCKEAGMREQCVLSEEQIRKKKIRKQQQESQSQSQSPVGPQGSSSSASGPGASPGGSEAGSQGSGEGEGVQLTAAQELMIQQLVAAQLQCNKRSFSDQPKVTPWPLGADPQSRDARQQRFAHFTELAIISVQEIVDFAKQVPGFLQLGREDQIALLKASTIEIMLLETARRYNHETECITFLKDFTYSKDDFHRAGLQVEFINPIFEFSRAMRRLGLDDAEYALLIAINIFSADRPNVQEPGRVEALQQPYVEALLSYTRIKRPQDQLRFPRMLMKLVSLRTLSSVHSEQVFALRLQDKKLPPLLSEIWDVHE

[7] = Luminescence-based cell-based high throughput dose response assay to identify activators of the DAF-12 from the parasite S. stercoralis (ssDAF-12).; assay type: functional
[8] = growth inhibition of intracellular T. cruzi, dose response, cell-based, plate reader, dry powder samples (AID 651845); assay type: functional
[9] = T. cruzi intracellular amastigote growth inhibition, dose response, imaging, CA-I/72 strain, bovine embryo skeletal muscle, dry powder (AID 651885); assay type: functional, cell-based
[10] = T. cruzi growth inhibition in host cells, dose response, cell-based, plate reader, dry powder, set 2 (AID 652275); assay type: functional
[11] = CellTiter-Glo luminescent dose response of DLD-1 viability loss (AID 1117352); assay type: functional
[12] = HCT116 cell viability decrease, GSK3B pretreatment – CellTiter-Glo, IC50, dose response (AID 1117339); assay type: functional; details: HCT-116
[13] = cytotoxicity toward Colo320 cells – cell-based, CellTiter-Glo luminescence, IC50, dose response (AID 1117334); assay type: functional; details: COLO 320
[14] = HeLa 4N DNA content increase, dose response, cell-based, IC50 (AID 1117351); assay type: functional
[15] = RKO cell viability reduction, dose response, CellTiter-Glo luminescence (AID 1117322); assay type: functional
[16] = Concentration-dependent survival of SW480 colon cancer line, luminescence detection with CellTiter-Glo, half-maximal inhibitory concentration (AID 1117338); assay type: functional
[17] = Late-stage results from the probe development effort to identify antagonists of arginine vasopressin receptor 1a (AVPR1a): fluorescence-based cell-based dose response AVPR1a inhibition assay.; assay type: functional
Vasopressin V2 receptor = Vasopressin V2 receptor (Homo sapiens, UniProt P30518); experiment: Late-stage results from the probe development effort to identify antagonists of arginine vasopressin receptor 1a (AVPR1a): fluorescence-based cell-based dose response AVPR2 inhibition counterscreen assay.; assay type: functional
[18] = Late-stage results from the probe development effort to identify antagonists of arginine vasopressin receptor 1a (AVPR1a): fluorescence-based cell-based dose response OXTR inhibition counterscreen assay.; assay type: functional
Vasopressin V1b receptor = Vasopressin V1b receptor (Homo sapiens, UniProt P47901); experiment: Late-stage results from the probe development effort to identify antagonists of arginine vasopressin receptor 1a (AVPR1a): fluorescence-based cell-based dose response AVPR1b inhibition counterscreen assay.; assay type: functional
[19] = P. falciparum Dd2 growth inhibitors, dose response, SYBR Green, cherry-picked samples (AID 1159567); assay type: functional, cell-based
[20] = cytotoxicity in HEK293 cells, dose response, cytotoxicity control, cell-based, cherry-picked samples (AID 1053185); assay type: functional
[21] = cytotoxicity in A549 cells, dose response, cytotoxicity control, cell-based, cherry-picked samples (AID 1053184); assay type: functional
[22] = HepG2 cell cytotoxicity, dose response, cytotoxicity control, cherry-picked samples (AID 1159577); assay type: functional, cell-based
[23] = cytotoxicity in HepG2 cells, dose response, cytotoxicity control, cell-based, cherry-picked samples (AID 1053183); assay type: functional
[24] = cytotoxicity toward HT-29 cells – cell-based, CellTiter-Glo luminescence, IC50, dose response (AID 1117330); assay type: functional
[25] = cytotoxicity toward HCT116 cells – cell-based, CellTiter-Glo luminescence, IC50, dose response (AID 1117332); assay type: functional; details: HCT-116
[26] = SNU-C1 cell viability reduction, dose response, CellTiter-Glo luminescence (AID 1117323); assay type: functional, cell-based
[27] = A549 cell cytotoxicity, dose response, cytotoxicity control, 24 h, CellTiter-Glo luminescence, cherry-picks (AID 1053115); assay type: functional, cell-based; details: A549, 24 h
[28] = HepG2 cell cytotoxicity, dose response, cytotoxicity control, cherry-picks, set 5 (AID 1053118); assay type: functional, cell-based
[29] = inhibitors of fibronectin matrix deposition, dose response, AH1F cells, Alexa488-FN fluorescence, cherry-picks (AID 1035475); assay type: functional, cell-based
[30] = HEK293 cell cytotoxicity, dose response, cytotoxicity control, cherry-picks, set 5 (AID 1053117); assay type: functional, cell-based
[31] = THP-1 cell cytotoxicity, dose response, cytotoxicity control for Vif-APOBEC3G degradation inhibitor project, THP-1 cells (AID 1117359); assay type: functional; details: Human immunodeficiency virus 1, THP-1
Beta-galactosidase = Beta-galactosidase (Escherichia coli, UniProt Q8VNN2); experiment: Dose response counterscreen for EBI2 assay utilizing the enzyme, b-galactosidase.; assay type: functional
[32] = insulin promoter down-regulators in MIN6 cells, imaging, high-content screening, mouse beta cells (AID 1628); assay type: functional
[33] = cytotoxicity in MIN6 insulinoma cells, dose response, cytotoxicity control, cell-based, mouse insulinoma (AID 2122); assay type: functional;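 also: confirmatory high-throughput counterscreen run to flag cytotoxic compounds; mouse MIN-6 beta cells carrying an insulin promoter eGFP reporter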
[34] = Vero cell cytotoxicity, dose response, cytotoxicity control for Vif-APOBEC3G degradation inhibitor project, Vero cells (AID 1117358); assay type: functional; details: Human immunodeficiency virus 1, Vero
[35] = inhibitors of Vif binding to APOBEC3G peptide, primary screen, biochemical, TR-FRET, GST-Vif 1-94, biotin-A3G peptide, dose response retest (AID 1117319); assay type: functional;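 also: TR-FRET signal of purified GST-Vif binding a biotinylated A3G peptide; inhibitors lower the FRET signal by blocking Vif and A3G binding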
[36] = cytotoxicity toward NIH3T3 fibroblasts, dose response, counter-screen, cell-based, ATP luminescence, mouse fibroblasts (AID 2010); assay type: functional;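 also: cells exposed to compound for about 90 hours before reading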
[37] = inhibitors of intracellular T. cruzi replication, confirmation, NIH3T3 host cells, beta-gal luminescence (AID 2044); assay type: functional, cell-based;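 also: intracellular parasites grown in NIH/3T3 mouse fibroblasts as host cells; luminescent beta-galactosidase reporter signal from transgenic T. cruzi replicating inside host cells; inhibitors lower the luminescence signal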
[38] = target: Dual specificity tyrosine-phosphorylation-regulated kinase 1A (Rattus norvegicus, UniProt Q63470); assay type: biochemical, Homo sapiens
[39] = target: T3, Oxysterols receptor LXR-beta; assay type: functional, cell-based
[40] = target: T4, Rac GTPase-activating protein 1 (Homo sapiens, UniProt Q9H0H5); experiment: MgcRacGAP GTPase-activating activity inhibitors, confirmation, biochemical, ADP Hunter fluorescence, primary and confirmatory (AID 624330); assay type: functional
T4 sequence (Q9H0H5 whole entry): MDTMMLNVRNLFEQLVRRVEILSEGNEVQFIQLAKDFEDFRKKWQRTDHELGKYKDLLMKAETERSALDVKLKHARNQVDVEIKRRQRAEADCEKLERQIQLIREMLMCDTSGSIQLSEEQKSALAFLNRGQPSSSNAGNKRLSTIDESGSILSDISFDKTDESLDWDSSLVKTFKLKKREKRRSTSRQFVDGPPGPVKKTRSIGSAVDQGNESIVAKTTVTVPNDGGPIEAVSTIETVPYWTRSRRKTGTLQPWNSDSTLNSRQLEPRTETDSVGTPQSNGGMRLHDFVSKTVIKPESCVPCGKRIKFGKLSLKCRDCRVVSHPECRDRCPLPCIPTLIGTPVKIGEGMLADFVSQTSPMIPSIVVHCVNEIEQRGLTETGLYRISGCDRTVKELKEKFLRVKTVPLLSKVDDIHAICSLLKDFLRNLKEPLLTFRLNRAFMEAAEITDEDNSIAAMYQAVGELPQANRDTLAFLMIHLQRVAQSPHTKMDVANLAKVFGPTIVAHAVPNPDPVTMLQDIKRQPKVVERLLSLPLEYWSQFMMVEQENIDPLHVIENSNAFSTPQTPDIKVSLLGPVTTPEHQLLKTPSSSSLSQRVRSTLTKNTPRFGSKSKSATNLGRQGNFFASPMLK

[41] = target: G-protein coupled receptor 183 (Homo sapiens, UniProt P32249); experiment: SAR confirmation of small molecule antagonists of the EBI2 receptor via a luminescent beta-arrestin assa.; assay type: functional
Chain of G-protein coupled receptor 183 (P32249 whole entry): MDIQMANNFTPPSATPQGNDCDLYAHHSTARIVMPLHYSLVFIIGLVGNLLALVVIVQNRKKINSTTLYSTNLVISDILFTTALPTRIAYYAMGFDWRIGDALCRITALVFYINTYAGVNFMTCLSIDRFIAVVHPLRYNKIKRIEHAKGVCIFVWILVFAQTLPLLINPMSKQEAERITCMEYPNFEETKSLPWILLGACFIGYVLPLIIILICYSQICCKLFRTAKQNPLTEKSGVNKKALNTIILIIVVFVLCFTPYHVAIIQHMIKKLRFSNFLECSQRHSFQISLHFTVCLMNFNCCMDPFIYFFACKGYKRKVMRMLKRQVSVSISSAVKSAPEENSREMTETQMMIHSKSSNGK

T2 sequence (P02675 whole entry, the tested form may be a part): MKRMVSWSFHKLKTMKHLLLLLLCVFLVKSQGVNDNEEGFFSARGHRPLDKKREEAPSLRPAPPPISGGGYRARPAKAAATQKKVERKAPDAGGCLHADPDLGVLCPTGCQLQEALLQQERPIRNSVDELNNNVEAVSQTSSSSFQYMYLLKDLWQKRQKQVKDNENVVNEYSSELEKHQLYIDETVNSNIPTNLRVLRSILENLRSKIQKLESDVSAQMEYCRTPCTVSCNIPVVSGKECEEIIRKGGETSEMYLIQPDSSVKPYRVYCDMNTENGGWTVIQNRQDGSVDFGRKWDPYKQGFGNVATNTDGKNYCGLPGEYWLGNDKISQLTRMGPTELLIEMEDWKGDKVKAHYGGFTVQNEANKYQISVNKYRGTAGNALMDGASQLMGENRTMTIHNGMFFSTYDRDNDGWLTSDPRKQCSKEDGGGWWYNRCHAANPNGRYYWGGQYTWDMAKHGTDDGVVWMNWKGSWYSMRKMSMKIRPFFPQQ
Chain of Sphingosine 1-phosphate receptor 2 (O95136 whole entry): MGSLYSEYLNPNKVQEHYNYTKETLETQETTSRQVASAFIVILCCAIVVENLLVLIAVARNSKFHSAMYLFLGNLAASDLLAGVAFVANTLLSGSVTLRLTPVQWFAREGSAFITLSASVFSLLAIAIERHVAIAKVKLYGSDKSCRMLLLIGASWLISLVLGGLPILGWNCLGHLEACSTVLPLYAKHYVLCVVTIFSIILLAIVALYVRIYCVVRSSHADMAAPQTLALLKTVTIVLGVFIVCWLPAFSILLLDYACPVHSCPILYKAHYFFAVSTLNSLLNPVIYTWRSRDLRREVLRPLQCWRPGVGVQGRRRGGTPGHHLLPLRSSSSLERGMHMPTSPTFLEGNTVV
Chain of Beta-galactosidase (Q8VNN2 whole entry): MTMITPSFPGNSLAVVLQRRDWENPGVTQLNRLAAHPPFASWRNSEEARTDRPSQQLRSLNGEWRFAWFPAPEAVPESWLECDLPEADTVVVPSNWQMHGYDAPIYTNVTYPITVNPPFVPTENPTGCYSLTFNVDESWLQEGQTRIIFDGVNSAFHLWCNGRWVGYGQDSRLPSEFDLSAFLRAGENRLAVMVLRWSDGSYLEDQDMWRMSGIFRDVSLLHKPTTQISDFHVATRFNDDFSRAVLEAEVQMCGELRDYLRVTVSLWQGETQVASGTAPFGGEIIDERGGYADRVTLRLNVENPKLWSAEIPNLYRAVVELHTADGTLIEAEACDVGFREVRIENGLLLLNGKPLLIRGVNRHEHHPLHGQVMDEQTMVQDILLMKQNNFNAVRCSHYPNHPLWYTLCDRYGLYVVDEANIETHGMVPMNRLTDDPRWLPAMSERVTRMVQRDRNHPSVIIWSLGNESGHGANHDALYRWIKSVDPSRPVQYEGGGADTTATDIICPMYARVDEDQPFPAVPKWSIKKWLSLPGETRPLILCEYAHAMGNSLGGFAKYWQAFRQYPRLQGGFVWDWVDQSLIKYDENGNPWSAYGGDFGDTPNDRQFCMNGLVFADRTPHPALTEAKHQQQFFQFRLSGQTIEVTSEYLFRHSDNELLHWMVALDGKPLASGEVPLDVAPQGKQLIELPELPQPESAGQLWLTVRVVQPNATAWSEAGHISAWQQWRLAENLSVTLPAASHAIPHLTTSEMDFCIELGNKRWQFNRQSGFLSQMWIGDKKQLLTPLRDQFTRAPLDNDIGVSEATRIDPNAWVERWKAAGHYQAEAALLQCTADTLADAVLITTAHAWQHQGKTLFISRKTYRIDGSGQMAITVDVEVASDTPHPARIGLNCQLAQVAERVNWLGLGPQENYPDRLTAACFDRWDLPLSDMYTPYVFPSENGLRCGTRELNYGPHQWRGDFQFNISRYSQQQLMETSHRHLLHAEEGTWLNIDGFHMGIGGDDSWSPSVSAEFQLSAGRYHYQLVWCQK
Chain of Diphosphomevalonate decarboxylase (Q9FD53 whole entry, the tested form may be a part): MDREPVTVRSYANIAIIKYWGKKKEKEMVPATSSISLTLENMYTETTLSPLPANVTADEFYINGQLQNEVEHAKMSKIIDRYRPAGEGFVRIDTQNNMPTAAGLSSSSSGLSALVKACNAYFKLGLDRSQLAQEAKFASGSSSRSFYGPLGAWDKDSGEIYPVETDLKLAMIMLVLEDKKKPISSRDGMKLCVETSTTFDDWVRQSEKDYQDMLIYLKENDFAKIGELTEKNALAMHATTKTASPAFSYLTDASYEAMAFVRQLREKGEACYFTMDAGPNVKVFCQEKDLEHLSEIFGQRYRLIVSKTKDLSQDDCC
Chain of Vasopressin V1b receptor (P47901 whole entry): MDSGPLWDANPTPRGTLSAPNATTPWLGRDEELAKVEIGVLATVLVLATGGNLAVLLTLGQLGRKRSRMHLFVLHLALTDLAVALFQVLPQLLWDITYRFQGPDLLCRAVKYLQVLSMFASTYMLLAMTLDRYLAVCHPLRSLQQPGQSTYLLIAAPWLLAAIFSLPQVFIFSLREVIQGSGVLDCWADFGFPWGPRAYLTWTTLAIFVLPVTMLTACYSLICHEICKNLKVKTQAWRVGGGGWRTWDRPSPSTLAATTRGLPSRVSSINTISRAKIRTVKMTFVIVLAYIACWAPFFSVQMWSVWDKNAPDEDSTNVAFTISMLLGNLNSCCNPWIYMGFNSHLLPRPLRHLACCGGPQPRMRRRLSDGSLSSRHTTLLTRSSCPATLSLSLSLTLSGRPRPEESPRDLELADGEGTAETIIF
Chain of Vasopressin V2 receptor (P30518 whole entry): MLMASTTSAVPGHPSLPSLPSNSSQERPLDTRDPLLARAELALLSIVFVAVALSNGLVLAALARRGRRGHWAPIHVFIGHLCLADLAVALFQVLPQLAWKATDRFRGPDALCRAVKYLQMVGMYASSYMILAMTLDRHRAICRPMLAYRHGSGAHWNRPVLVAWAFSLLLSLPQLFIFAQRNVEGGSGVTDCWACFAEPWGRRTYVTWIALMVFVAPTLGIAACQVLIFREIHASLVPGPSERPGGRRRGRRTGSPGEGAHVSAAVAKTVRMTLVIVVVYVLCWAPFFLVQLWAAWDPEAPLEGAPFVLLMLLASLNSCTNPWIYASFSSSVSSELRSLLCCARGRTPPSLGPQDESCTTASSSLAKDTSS

## COC(=O)c1sc2cc(C(F)(F)F)cnc2c1-c1cccnc1
[1]
  IC50: 14.3 µM (not active)
[2]
  IC50: > 30 µM (not active)

## CCN(CC)C(=O)c1ccc(-n2sc3ccccc3c2=O)cc1
[3]
  IC50: 19.2 µM (active)

## CCOC(=O)N1CCN(Cc2nc(-c3ccc(C)cc3)no2)CC1
Fibrinogen beta chain [4]
  IC50: > 83.3 µM (inactive)
Fibrinogen beta chain [5]
  IC50: > 27.8 µM (inactive)

## Oc1ccc(N=Nc2ccccc2)o1
[6]
  EC50: > 67.6 µM (inactive)
[7]
  IC50: > 67.6 µM (inactive)

## CC(C)N1C[C@H](C)[C@@H](CN(C)Cc2ccc(Oc3ccccc3)cc2)Oc2c(NC(=O)c3ccncc3)cccc2C1=O
[8]
  AC50: 0.00119 µM (active)
[9]
  IC50: 0.00163 µM (active)
[10]
  AC50: 0.00111 µM (active)

## COc1cccc2c1C(=O)c1c(O)c3c(c(O)c1C2=O)C[C@@](O)(C(=O)CO)CC3OC1CC(N2CCOC(OC)C2)C(O)C(C)O1 (stereo not given in full)
[11]
  IC50: 0.001 µM (active)
[12]
  IC50: 0.001 µM (active)
[13]
  IC50: 0.001 µM (active)
[14]
  IC50: > 10 µM (inactive)
[15]
  IC50: 0.001 µM (active)
[16]
  IC50: 0.001 µM (active)

## O=C(C1CCN(c2ncccc2F)CC1)N(CC1CC1)c1ccc(Cl)cc1
[17]
  IC50: 0.015 µM (active)
Vasopressin V2 receptor
  IC50: 19 µM (inactive)
[18]
  IC50: 3.6 µM (active)
Vasopressin V1b receptor
  IC50: 11.5 µM (inactive)

## C/C=C/c1ccc([C@@H]2[C@@H]3CN(C(=O)Nc4ccc(C(F)(F)F)cc4)C[C@H]2N3)cc1
[19]
  AC50: 6.85 µM (active)
[20]
  AC50: 16.6 µM (active)
[21]
  AC50: 18.1 µM (active)
[22]
  AC50: 10.3 µM (active)
[23]
  AC50: 16.7 µM (active)

## CC(CC=O)CCCC(C)(C)O (stereo not given)
[24]
  IC50: > 20 µM (inactive)
[25]
  IC50: > 20 µM (inactive)
[26]
  IC50: > 20 µM (inactive)
[11]
  IC50: > 20 µM (inactive)
[12]
  IC50: > 20 µM (inactive)
[13]
  IC50: > 20 µM (inactive)
[15]
  IC50: > 20 µM (inactive)
[16]
  IC50: > 20 µM (inactive)

## OC[C@@H]1Nc2ccc(-c3cccc(F)c3)cc2[C@H]2[C@@H]1CCN2Cc1ccc(F)cc1
[27]
  AC50: 51.5 µM (active)

## CO[C@H]1CN(C)C(=O)c2ccc(NC(=O)Nc3ccc(Cl)c(Cl)c3)cc2OC[C@H](C)NC[C@@H]1C
[28]
  AC50: 11.2 µM (active)
[29]
  AC50: 53.6 µM (active)
[30]
  AC50: 18.4 µM (active)

## Cc1cccc(S(=O)(=O)c2c(N)n(/N=C/c3ccco3)c3nc4ccccc4nc23)c1
[31]
  CC50: > 40 µM (active)
Beta-galactosidase
  IC50: > 80 µM (inactive)
[32]
  IC50: 6.02 µM (active)
[33]
  IC50: 9.21 µM (active)
[34]
  CC50: > 40 µM (active)
[35]
  IC50: > 55.3 µM (active)
[36]
  EC50: 12 µM (active)
[37]
  EC50: 2.12 µM (active)

## CSc1nc(/C=C2\C=Nc3ccccc32)c(O)[nH]1
[38]
  AC50: 7.28 µM (active)
[39]
  EC50: > 67.6 µM (inactive)
cells
  EC50: > 67.6 µM (inactive)
[40]
  IC50: 35.9 µM (active)

## CCOc1ccc(/C=C/C(=O)N2CCN(S(=O)(=O)c3ccc(Br)cc3)CC2)cc1
[41]
  IC50: 0.0143 µM (active)
